Reference: the NIST ThermoML archive (doi:10.1016/j.tca.2015.12.007)
Where “and” joins values, the source holds several entries; their conditions need not be identical. Equal entries are not always repeated. ± gives the expanded uncertainty stated by the source.

How the values were obtained:
[1] = Crystal, Calculated from knudsen effusion weight loss
[2] = molar enthalpy of vaporization or sublimation; details: 298.15 K; Crystal; Static calorimetry

CC(C)C1C(=O)NC(=O)NC1=O [5-isopropylbarbituric acid]
[1]
Details | vapor or sublimation pressure
369.16 K | 0.000115 ± 2e-05 kPa and 0.000107 ± 2e-05 kPa and 0.000106 ± 2e-05 kPa
371.12 K | 0.000138 ± 2.1e-05 kPa and 0.000135 ± 2.1e-05 kPa
373.08 K | 0.000167 ± 2.1e-05 kPa and 0.000169 ± 2.1e-05 kPa and 0.000166 ± 2.1e-05 kPa
375.16 K | 0.000204 ± 2.1e-05 kPa and 0.000202 ± 2.1e-05 kPa and 0.000216 ± 2.1e-05 kPa
377.12 K | 0.000254 ± 2.2e-05 kPa and 0.000251 ± 2.2e-05 kPa and 0.000257 ± 2.2e-05 kPa
379.09 K | 0.000314 ± 2.3e-05 kPa and 0.000311 ± 2.3e-05 kPa and 0.000303 ± 2.3e-05 kPa
381.16 K | 0.000371 ± 2.4e-05 kPa and 0.00037 ± 2.4e-05 kPa and 0.000389 ± 2.4e-05 kPa
383.11 K | 0.000461 ± 2.6e-05 kPa and 0.000453 ± 2.6e-05 kPa and 0.000465 ± 2.6e-05 kPa
385.09 K | 0.000559 ± 2.8e-05 kPa and 0.000555 ± 2.8e-05 kPa and 0.000554 ± 2.8e-05 kPa
387.15 K | 0.000674 ± 3.1e-05 kPa and 0.000675 ± 3.1e-05 kPa and 0.000708 ± 3.2e-05 kPa
389.13 K | 0.000839 ± 3.6e-05 kPa and 0.000843 ± 3.6e-05 kPa and 0.000844 ± 3.6e-05 kPa
391.11 K | 0.000998 ± 4.1e-05 kPa and 0.001017 ± 7.9e-05 kPa and 0.001009 ± 7.8e-05 kPa

Details | molar enthalpy [kcal/mol]
[2] | 29.9 ± 0.908
